Test results as given in patent publication US7851505B2, “Thiotungstate analogues and uses thereof” (priority 2003, dated 2010).
Several values for one entry are separate records, joined by “and”; a condition that tells them apart may be missing. Equal values may be shown once. Read-outs that look alike come from different tables or passages of the source.

Assays:
[1] = Moisture stability of tetrathiotungstate salts; assay type: physicochemical
[2] = Copper-binding ability: inhibition of cysteine autooxidation; assay type: biochemical; details: 100 μM Cys, 100 μM coumarin-3-carboxylic acid, 100 μM CuSO4
Experimental: The copper-binding ability of tetrathiotungstate salts was determined according to the ability of tetrathiotungstate salts to inhibit cysteine autooxidation as reported in Table 2 below.

angiogenesis = test: Matrigel plug assay (inhibition of angiogenesis); assay type: in vivo, athymic nude mice; details: FIG. 1
Experimental: This assay is performed essentially as described by Passaniti et al., Lab Invest. 1992, 67:519-528. Ice-cold Matrigel® (e.g., 500 μL) (Collaborative Biomedical Products, Inc., Bedford, Mass.) is mixed with heparin (e.g., 50 μg/ml), FGF-2 (e.g., 400 ng/ml) and the compound to be tested. In some assays, bFGF may be substituted with tumor cells as the angiogenic stimulus. The Matrigel® mixture is injected subcutaneously into 4-8 week-old athymic nude mice at sites near the abdominal midline, preferably 3 injections per mouse. The injected Matrigel®b forms a palpable solid gel. […] Hemoglobin (Hb) levels are determined using Drabkin's solution (e.g., obtained from Sigma) according to the manufacturers' instructions. […] The amount of fluorescence in the dispersed plug which is determined fluorimetrically serves as a measure of angiogenesis in the plug. […]
Ammonium tetrathiotungstate was assayed in the Matrigel® plug assay as described in Section 5.4.7, supra. Two positive controls were used with positive control 1 measured five days after implantation when treatment began and […] measured five days after implantation when treatment ended. Two negative controls were used with negative control 1 measured five days after implantation when treatment began and […] measured five days after implantation when treatment ended.

[3] = room temperature, 95% relative humidity, two weeks, purity by absorbance, * = partially soluble, ‡ = average of 2 data points

Compound	% degradation [1, 3]	% inhibition ([2]; inhibitor concentration 50 μM)	inhibition of angiogenesis (angiogenesis)	% inhibition ([2]; inhibitor concentration 10 μM)	% degradation [1]	% inhibition ([2]; inhibitor concentration 1 μM)
Cc1cc[n+](C)cc1.Cc1cc[n+](C)cc1.[S]=[W](=[S])([S-])[S-] [Tetrathiotungstate, bis(1,4-dimethylpyridinium)]	2.0%	89.98% and 89.66%	–	–	–	–
Tetrathiotungstate, bis(ammonium) [reference compound]	−0.46%	95.94%	about 34%	–	–	–
Tetrathiotungstate, butane-1,4-bis(trimethylammonium)	–	91.75%	–	87.32%	–	–
C[n+]1ccccc1C=NO.C[n+]1ccccc1C=NO.[S]=[W](=[S])([S-])[S-] [Tetrathiotungstate, bis(2-hydroxyiminomethyl-1-methyl-pyridinium)]	5.6%	91.15%	–	–	–	–
C[N+](C)(C)CCO.C[N+](C)(C)CCO.[S]=[W](=[S])([S-])[S-] [Tetrathiotungstate, bis(choline)]	–	92.54% and 91.99%	–	–	3.0%	–
Tetrathiotungstate, pentane-1,5-bis(trimethylammonium)	–	90.69%	–	–	–	–
Tetrathiotungstate, propane-1,3-bis(trimethylammonium)	–	92.95%	–	85.53%	–	–
C[N+](C)(C)CCOC(=O)CCCCCCC(=O)OCC[N+](C)(C)C.[S]=[W](=[S])([S-])[S-] [Tetrathiotungstate, suberyldicholine]	18.4* %	–	–	77.83%	–	67.74%
CCn1cc[n+](C)c1.CCn1cc[n+](C)c1.[S]=[W](=[S])([S-])[S-] [Tetrathiotungstate, bis(l-ethyl-3-methyl-1H-imidazolium)]	1.3%	91.16%	–	–	–	–
C[N+](C)(C)Cc1ccccc1.C[N+](C)(C)Cc1ccccc1.[S]=[W](=[S])([S-])[S-] [Tetrathiotungstate, bis(benzzyltrimethylammonium)]	0.41%	94.62%	–	–	–	–
NCCNCCNCCN [trientine, reference compound]	–	39.71%	–	–	–	0.00%
C[N+](C)(C)CCO.C[N+](C)(C)CCO.[S]=[Mo](=[S])([S-])[S-] [Tetrathiomolybdate, bis (choline), reference compound]	–	–	–	–	36 ± 2%	–
Tetrathiotungstate, ethylenebis(trimethylammonium)	8.6* %	89.60%	–	84.66%	–	–
[NH4+].[NH4+].[SH-].[SH-].[S]=[Mo]=[S] [Tetrathiomolybdate, bis(ammonium), reference compound]	–	94.24%	–	87.71% and 76.69%	–	68.48%
Tetrathiotungstate, (succinylcholine)	23.3* %	–	–	81.38%	–	66.06%
CC(=O)OCC[N+](C)(C)C.CC(=O)OCC[N+](C)(C)C.[S]=[W](=[S])([S-])[S-] [Tetrathiotungstate, bis(acetylcholine)]	–	90.36%	–	–	2.4%	–
CC(=O)OC(C)C[N+](C)(C)C.CC(=O)OC(C)C[N+](C)(C)C.[S]=[W](=[S])([S-])[S-] (stereo not drawn) [Tetrathiotungstate, bis(acetyl-β-methylcholine)]	4.2%	90.40%	–	–	–	–
C[N+]1(C)CCCC1.C[N+]1(C)CCCC1.[S]=[W](=[S])([S-])[S-] [Tetrathiotungstate, bis(1,1-dimethylpyrrolidinium)]	0.04%	–	–	–	–	–
CC[N+](CC)(CC)c1ccccc1.CC[N+](CC)(CC)c1ccccc1.[S]=[W](=[S])([S-])[S-] [Tetrathiotungstate, bis(triethylphenyl ammonium)]	−0.12%	91.32%	–	–	–	–
C[N+](C)(C)c1ccccc1.C[N+](C)(C)c1ccccc1.[S]=[W](=[S])([S-])[S-] [Tetrathiotungstate, bis(trimethylphenylammonium)]	−0.46%	91.53%	–	–	–	–
